# Experimental data: patent publication US12516022B2, “Derivatives of aryl hydrocarbon receptor agonists” (AZORA THERAPEUTICS, INC., priority 2021, dated 2026)
# Assay: Time course of conversion to indirubin in FaSSIF at 37° C.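 Also: test compound, about 1-3 mg in 5 mL FaSSIF, sampled and analysed by UPLC-MS with PDA UV (210-400 nm), QDa mass and evaporative light scattering detection.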
# Format: physicochemical
# Conditions: for Conversion to indirubin: over a 24 hour period
SMILES,indirubin (FaSSIF 37° C. 24 h),indirubin methylene alcohol (FaSSIF 37° C. 24 h),starting material (prodrug compound) (FaSSIF 37° C. 24 h),"indirubin (FaSSIF 37° C., 15 min)","indirubin methylene alcohol (FaSSIF 37° C., 15 min)","starting material (prodrug compound) (FaSSIF 37° C., 15 min)","indirubin (FaSSIF 37° C., 30 min)","indirubin methylene alcohol (FaSSIF 37° C., 30 min)","starting material (prodrug compound) (FaSSIF 37° C., 30 min)","indirubin (FaSSIF 37° C., 1 h)","indirubin methylene alcohol (FaSSIF 37° C., 1 h)","starting material (prodrug compound) (FaSSIF 37° C., 1 h)","indirubin (FaSSIF 37° C., 2 h)","indirubin methylene alcohol (FaSSIF 37° C., 2 h)","starting material (prodrug compound) (FaSSIF 37° C., 2 h)",Conversion to indirubin (FaSSIF 37° C.)
O=C1/C(=C2/C(=O)N(C(=O)NC3CCOCC3)c3ccccc32)Nc2ccccc21 [drawing 263],6%,0%,55%,8%,0%,50%,5%,0%,44%,5%,0%,33%,10%,1%,50%,0-20%
CN(C)C1CCN(CN2C(=O)/C(=C3\Nc4ccccc4C3=O)c3ccccc32)CC1 [drawing 256],72%,6%,0%,61%,5%,30%,62%,5%,31%,58%,5%,32%,70%,7%,22%,60-80%
CCN(CC)CN1C(=O)/C(=C2\Nc3ccccc3C2=O)c2ccccc21 [drawing 252],100%,0%,0%,100%,0%,0%,100%,0%,0%,100%,0%,0%,100%,0%,0%,80-100%
CN(C)CCN(CCN(C)C)CN1C(=O)/C(=C2\Nc3ccccc3C2=O)c2ccccc21 [drawing 257],74%,4%,0%,78%,13%,6%,78%,13%,6%,78%,13%,6%,83%,10%,4%,60-80%
O=C1/C(=C2/C(=O)N(CN3CCCCC3)c3ccccc32)Nc2ccccc21 [drawing 254],,,,,,,,,,,,,,,,80-100%
O=C1/C(=C2/C(=O)N(CN3CCCC3)c3ccccc32)Nc2ccccc21 [drawing 255],100%,0%,0%,100%,0%,0%,100%,0%,0%,100%,0%,0%,100%,0%,0%,80-100%
O=C1/C(=C2/C(=O)N(CN3CCOCC3)c3ccccc32)Nc2ccccc21 [drawing 261],24%,7%,46%,5%,0%,69%,8%,3%,80%,6%,0%,64%,7%,4%,65%,20-40%
